Columns and labels:
[1] = system: Nanog transcription site; assay: Nanog transcription bursting (MCP-mNeonGreen, NMG mESCs); type: cell-based, mouse
Text: (§1) It is discovered that Pol II, Sox2 and Brd4 form foci at Nanog transcription sites, with nanoscale organization akin to Pou5f1—colocalization of Pol II with 3′UTR-tagged nascent RNA and resolvable separation of enhancer-associated regulatory factors (FIGS. 9A-9D).
If accumulated Brd4 at Nanog acts mainly as a Pol II pause-release factor, upon Brd4 inhibition a reduction in burst amplitude would be expected. […] Thus, beyond controlling Pol II pause-release, Brd4 regulates transcription bursting, exemplified by the striking correspondence between burst frequency and enhancer-associated Brd4 cluster size. Bursting kinetics cannot be captured by static end-point assays that provide information averaged over a population of cells (e.g. ChIP, NET-Seq etc).
Wide-Field Cell Imaging Experiments. Live cell imaging experiments (tdPCP-EGFP and MCP-mNeonGreen tracking). For time-lapse imaging, a z-stack of 11 frames at 1 frame/second was acquired, by stepping the sample along the z-axis using the nanopositioning stage (250 nm steps). The CCD data were analyzed using IDL 6.4 (ITTVIS). Maximum projection images were calculated for each stack, and the resulting 11 sec/frame movie was used to track the intensities of individual tdPCP-EGFP-tagged transcription sites. A particle tracking routine (Crocker and Grier, 1996) was used for finding the positions of the transcription site in each frame and linking them into a 2D trajectory. The intensity trace of tdPCP-EGFP at the transcription site was corrected for photo-bleaching using the time trace of tdPCP-EGFP in a nearby nuclear region. The auto-correlation function was calculated (for the tdPCP-EGFP fluctuation analysis), or the data were imported in Origin 8.5.0 (OriginLab) and the trace fitted to a single-exponential decay (for the transcription inhibition experiments).
NMG mESCs contain 24×MS2 cassettes integrated in the 3′-UTR of both Nanog alleles and also stably express MCP-mNeonGreen (Ochiai et al., 2014).

[2] = target: T1, Brd4 foci at the Nanog locus (Mus musculus, UniProt Q9ESU6); assay: Brd4 cluster signal at Nanog vs. [JQ1]; type: cell-based; details: mESCs
T1 construct: integrating a SNAP-tag at the N-terminus of the endogenous Brd4; endogenous in cells; host or cells: mouse ESCs NMG, NMG SNAP-Brd4 clone 7 (CRISPR knock-in, homozygous)
Protocol: as §1
For real-time confocal and STED imaging, example implementations may program the wave generator to scan 2 μm×2 μm or 1 μm×1 μm xy areas in 0.8 sec or 0.2 sec respectively. 3D scanning was performed (via, e.g., detection system 150) by acquiring 5 xy scans while moving the stage by 0.5 μm in z between scans. TTL pulses corresponding to single-photon events from the APDs, together with the trigger pulses from the wave generator were detected using a field-programmable gate array (FPGA) data acquisition system (National Instruments, PCIe-7852R).
Before imaging, cells were seeded onto 8-chamber coverglass (LabTek, 155411) coated with 5 μg/ml laminin (BioLamina LN511), in −2i media (OMG) or +2i media (NMG) and appropriate drugs. For SiR staining, cells were labeled with media containing 0.3 μM SiR-BG for 10 mins, at 37° C., followed by three washes with new media.
To generate OMG or NMG SNAP-Brd4 targeted cells, OMG-1 or NMG mESCs (1×106) were transfected with 10 μg SNAP-Brd4 donor vector and 0.6 μg espCas9-gRNA-Brd4 vector. […]

[3] = system: Pol II (FLAG-SNAP-Rpb1) at the CMV mini-gene; assay: ChIP-qPCR of Pol II at the CMV mini-gene after flavopiridol treatment (U2-OS cells); type: cell-based, human; details: 10 μM flavopiridol, by the 5-minute time point; clone 5 cells
Protocol: ChIP-qPCR analysis of Pol II after flavopiridol treatment. U2-OS cells. Fast chromatin immuno-precipitation was performed as described. Confluent 15 cm dishes (20×10^6 cells) were treated with 10 μM Flavopiridol or DMSO for the indicated times. Methanol-free formaldehyde (Thermo Fisher) was then directly added to the media to 1% v/v final concentration, and dishes were immediately placed on a rotator/shaker for 10 minutes at RT. Formaldehyde was quenched with 125 mM glycine for 5 min at RT, and cells were scraped and collected with centrifugation (2,000 g, 5 min at 4° C.) and washed twice with cold PBS. Cells were lysed in buffer IP (150 mM NaCl, 50 mM Tris-HCl pH 7.5, 5 mM EDTA, 0.5% v/v NP-40, 1.0% v/v Triton X-100) containing protease inhibitors, centrifuged (12,000 g, 1 min at 4° C.), and after one wash, the pellet was resuspended in buffer IP+protesase inhibitors. Volume equivalent to 4×10^6 cells was sonicated to shear the chromatin (Bioruptor indirect sonicator), and cleared using centrifugation (12,000 g, 10 min at 4° C.). […] Eluted chromatin was analyzed with qPCR, using primer pairs specific for different mini-gene regions (FIGS. 13I, 13J).

Row | Structure (SMILES) | Nanog burst duration ([1]; JQ1 titration) | Hill equation n, Nanog burst frequency vs. [JQ1] ([1]; Nanog, mESCs) | Nanog burst amplitude ([1]; at higher [JQ1]) | Nanog burst frequency ([1]; at low [JQ1]) | Hill curve n, relative Brd4 signal at Nanog vs. [JQ1] [2] | Pol II ChIP signal at mini-gene body and terminator regions [3]
1 | Cc1sc2c(c1C)C(c1ccc(Cl)cc1)=N[C@@H](CC(=O)OC(C)(C)C)c1nnc(C)n1-2 [JQ1] | largely unaffected | 0.9±0.3 | modest reduction | dramatically reduced | 1.0 | 
2 | CN1CC[C@H](c2c(O)cc(O)c3c(=O)cc(-c4ccccc4Cl)oc23)[C@H](O)C1 [flavopiridol] |  |  |  |  |  | near-complete loss

— patent publication US12031897B2, “Target-locking single-molecule nanoscopy” (Memorial Sloan Kettering Cancer Center, priority 2019, dated 2024)
